In patent publication EP4582426A1, “PAN-KRAS INHIBITOR COMPOUND” (Adlai Nortye Biopharma Co., Ltd., priority 2022, dated 2024):

Legend:
AsPC-1 (G12D) = test: In vitro cell proliferation inhibition test (CellTiter-Glo Luminescent Cell Viability Assay); type: cell-based; settings: AsPC-1 cell line, Pancreas, KRAS (p.G12D), cells and compounds co-incubated 72 hours
Text: (§1) Due to the diversity of RAS mutations and in order to evaluate the activity of compounds in different RAS mutant cell lines, we selected KRAS^WT, KRAS^G12C, KRAS^G12D), KRAS^G12V and BRAF mutant cell lines (see the table below) for in vitro activity evaluation and screening of compounds .
(§2) Experimental protocol: CellTiter-Glo® Cell Luminescent Viability Assay (Promega)
(§3) According to the doubling time of different cell lines, different numbers of cells (1000-5000 cells/well) were inoculated into 96-well plates containing 180 µl of the corresponding medium, and cultured overnight in a 37°C cell incubator containing 5% CO2. On the second day, the compound to be tested was pre-diluted 3-fold with the medium, the highest concentration was 100 µM, and there were 10 concentration gradients in total; then 20 µl of the medium containing different concentrations of the compound was added to the cells in the 96-well plate to ensure the final concentration of the compound to be up to 10 µM, with 10 concentration gradients of 3-fold dilutions. After co-incubating cells and compounds for 72 hours, the 96-well plate was taken out of the incubator, placed at room temperature for 30 minutes, and then 25 µl CellTiter-Glo® Reagent was added to each well to mix well, and incubated at room temperature for 10 minutes, and then 100 µl of the sample was transferred to a white 96-well plate (OptiPlateTM-96, PerkinElmer), the […] signal value was read using a multi-functional microplate reader (SpectraMax® i3x, Molecular devices). Subsequently, the signal value was standardized, and the four-parameter fitting regression equation was used for curve fitting to calculate the half maximal inhibitory concentration (IC50) of the compound on the cell line. Table 3: Antiproliferative activity of compounds of the present invention on KRAS cell mutants

SW480 (G12V) = test: as above; type: cell-based; settings: SW480 cell line, Large intestine, Colon, KRAS (p.G12V), cells and compounds co-incubated 72 hours
Text: as §1, §2, §3

Row | IC50 (AsPC-1 (G12D); listed as 9') | IC50 (SW480 (G12V); listed as 9') | Molecule | IC50 (AsPC-1 (G12D)) | IC50 (SW480 (G12V))
1 | – | – | CCn1c(-c2cc(C#CCN3CCC(F)C3)cnc2C(C)OC)c2c3cc(ccc31)-c1csc(n1)CC(NC(=O)C1C(C)C1C)C(=O)N1CCCC(N1)C(=O)OCC(C)(C)C2 (single isomer, unassigned) [Example 21] | 0.82 nM | 1.1 nM
2 | – | – | CCn1c(-c2cc(C#CCN3CCOC(CO)C3)cnc2C(C)OC)c2c3cc(ccc31)-c1csc(n1)CC(NC(=O)C1CC1C)C(=O)N1CCCC(N1)C(=O)OCC(C)(C)C2 (single isomer, unassigned) [Example 20] | 2.4 nM | 8.9 nM
3 | – | – | (1r,2R,3S)-N-((6^3S,4S,Z)-1^1-ethyl-1^2-(5-(3-((S)-hexahydropyrazino[2,1-c][1,4]oxazin-8(1H)-yl)prop-1-yn-1-yl)-2-((S)-1-methoxyethyl)pyridin-3-yl)-10,10-dimethyl-5,7-dioxo-6^1,6^2,6^3,6^4,6^5,6^6-hexahydro-1^1H-8-oxa-2(4,2)-thiazola-1(5,3)-indola-6(1,3)-pyridazinacycloundecaphane-4-yl)-2,3-dimethylcyclopropane-1-carboxamide [Example 40] | 1.35 nM | 1.5 nM
4 | – | – | CCn1c(-c2cc(C#CCN3CCS(=N)(=O)CC3)cnc2C(C)OC)c2c3cc(ccc31)-c1csc(n1)CC(NC(=O)C1CC1C)C(=O)N1CCCC(N1)C(=O)OCC(C)(C)C2 [Example 57, (1S,2S)-N-((6^3S,4S,Z)-1^1-ethyl-1^2-(5-(3-(1-imino-1-oxido-1l6-thiomorpholino)prop-1-yn-1-yl)-2-((S)-1-methoxyethyl)pyridin-3-yl)-10,10-dimethyl-5,7-dioxo-6^1,6^2,6^3,6^4,6^5,6^6-hexahydro-1^1H-8-oxa-2(4,2)-thiazola-1(5,3)-indola-6(1,3)-pyridazinacycloundecaphane-4-yl)-2-methylcyclopropane-1-carboxamide] | 1.9 nM | 2 nM
5 | 1360 nM | 963 nM | CCn1c(-c2cc(C#CCN3C[C@@H](C)O[C@@H](C)C3)cnc2[C@H](C)OC)c2c3cc(ccc31)-c1csc(n1)C[C@H](NC(=O)[C@H]1C[C@@H]1C)C(=O)N1CCC[C@H](N1)C(=O)OCC(C)(C)C2 (single isomer, unassigned) [Example 9] | 4.5 nM | 31.6 nM
6 | – | – | CCn1c(-c2cc(C#CCN3CCOCC3)cnc2[C@H](C)OC)c2c3cc(ccc31)-c1csc(n1)C[C@H](NC(=O)C1CC1)C(=O)N1CCC[C@H](N1)C(=O)OCC(C)(C)C2 [Example 54, N-((6^3S,4S,Z)-1^1-ethyl-1^2-(2-((S)-1-methoxyethyl)-5-(3-morpholinoprop-1-yn-1-yl)pyridin-3-yl)-10,10-dimethyl-5,7-dioxo-6^1,6^2,6^3,6^4,6^5,6^6-hexahydro-1^1H-8-oxa-2(4,2)-thiazola-1(5,3)-indola-6(1,3)-pyridazinacycloundecaphane-4-yl)cyclopropanecarboxamide] | 17.3 nM | 35 nM
7 | – | – | CCn1c(-c2cc(C#CC3(C)CN(C)C3)cnc2C(C)OC)c2c3cc(ccc31)-c1csc(n1)CC(NC(=O)C1C(C)C1C)C(=O)N1CCCC(N1)C(=O)OCC(C)(C)C2 (single isomer, unassigned) [Example 19] | 2.2 nM | 1.5 nM
8 | – | – | CCn1c(-c2cc(C#CC3CCCN3C)cnc2C(C)OC)c2c3cc(ccc31)-c1csc(n1)CC(NC(=O)C1C(C)C1C)C(=O)N1CCCC(N1)C(=O)OCC(C)(C)C2 [Example 11, (1r,2R,3S)-N-((63S,4S,Z)-11-ethyl-12-(2-((S)-1-methoxyethyl)-5-(((S)-1-methylpyrrolidin-2-yl)ethynyl)pyridin-3-yl)-10,10-dimethyl-5,7-dioxo-61,62,63,64,65,66-hexahydro-11H-8-oxa-2(4,2)-thiazola-1(5,3)-indola-6(1,3)-pyridazinacyclonecaphane-4-yl)-2,3-dimethylcyclopropane-1-carboxamide] | 1.7 nM | –
